Drawing on patent US10226448B2, “3-(1H-pyrrolo[3,2-C]pyridin-2-yl)-1H-pyrazolo[3,4-B]pyridines and therapeutic uses thereof” (Samumed, LLC, priority 2015, dated 2019), this text covers EC50, Emax and inhibition for 15 compounds.

What all share (format): cell-based
Assay [1] concerns primary human mesenchymal stem cells (hMSCs). The experiment in a line: Induction of chondrogenesis in primary human mesenchymal stem cells (chondrogenic nodules, Rhodamine B / Nile Red). To be noted: 6 days; for EC50: concentration required to induce 50% levels of chondrogenesis vs TGF-β3, read-out: Conc (nM) of 50% TGF-β3 activity; for Emax: relative to TGF-β3 (10 ng/mL) positive control, read-out: Max. Activity as % TGF-β3 activity. In a few lines: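 Primary hMSCs at passage 3–6 were fixed with 4% formaldehyde and stained with 2 μg/mL Rhodamine B plus 20 μM Nile Red to image chondrogenic nodules. Nodule counts normalized to the mean of 3 DMSO wells (fold change), averaged over 3 replicate wells per concentration. TGF-β3 served as positive control; EC50, maximum activity and the dose giving maximum are reported.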

For the next assay, the system named is IL-6 in THP-1 cells. Kind of assay: IL-6 inhibition in LPS-stimulated THP-1 human monocyte cells (HTRF). To be noted: for EC50: IL-6 inhibition, LPS-stimulated THP-1 cells, HTRF, 10-point dose-response starting from 10 μM; for inhibition at 10 µM: THP-1, read-out: percentage in parentheses beside EC50 >10. The essentials: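 THP-1 cells were serum-reduced (1% FBS, 24 h), plated at 5000 cells/well with compound for 2 h at 37 °C, then stimulated 22 h with 500 ng/mL LPS. Secreted IL-6 was quantified by HTRF (665/620 nm ratio). Signals were normalised to DMSO, and EC50 was fitted by four-parameter nonlinear regression.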

Assay [2] relates to LL29 cells (primary human fibroblasts derived from IPF patients), α-smooth muscle actin. The experiment in a line: Inhibition of the fibrotic process: αSMA staining in TGF-β1 treated primary human fibroblasts from IPF patients (LL29 cells). To be noted: Fibroblast; for EC50: 96 h, LL29 cells, TGF-β1 20 ng/mL, 4 days, % αSMA positive cells; for inhibition at 10 µM: read-out: percent inhibition at 10 μM. The essentials: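 IPF-patient-derived LL29 lung fibroblasts in F12 with 1% FBS, stimulated with TGF-β1 alongside compound; TGF-β1 plus DMSO wells served as controls. After 4 days, nuclei stained with 1 μM SYTOX green for 30 min at room temperature, alongside αSMA staining.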

For a further assay, the system named is SW480 colon cancer cells. The experiment in a line: Cell viability assay (CellTiter-Blue) in SW480 colon cancer cells. The conditions noted are these: Homo sapiens; for EC50: 96 h, SW480 cell viability, four days, CellTiter-Blue; for inhibition at 10 µM: SW480, read-out: percent inhibition at 10 μM. In a few lines:
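Fluorescence from resazurin reduced to resorufin by metabolically active cells was the read-out, taken after ~3 h with CellTiter-Blue.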

Assay [3] deals with Wnt activity (Sp5-Luc reporter, TCF/LEF binding sites) in SW480 colon carcinoma cells. The experiment in a line: Wnt activity screening assay: Sp5-Luc reporter gene assay in SW480 cells. The conditions noted are these: Homo sapiens; for inhibition at 10 µM: SW480, read-out: percent inhibition at 10 μM; for EC50: Sp5-Luc reporter, SW480 cells, overnight incubation. In a few lines:
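SW480 cells stably carrying a luciferase reporter under a human Sp5 promoter with eight TCF/LEF sites, plated at 4,000 cells/well in 1% FBS medium. Luminescence read with BrightGlo, normalized to DMSO-treated cells; EC50 from four-parameter variable-slope nonlinear regression.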

With `Nc1cncc(-c2cnc3[nH]nc(-c4cc5c(-c6ccncc6)nccc5[nH]4)c3c2)c1` [Compound 115, 5-(3-(4-(Pyridin-4-yl)-1H-pyrrolo[3,2-c]pyridin-2-yl)-1H-pyrazolo[3,4-b]pyridin-5-yl)pyridin-3-amine], the EC50 was 30 nM in assay [1]; greater than 10 µM in the assay with IL-6 in THP-1 cells; greater than 10 µM in assay [2]; greater than 10 µM in the assay on SW480 colon cancer cells; greater than 10 µM in assay [3]. Further, the Emax in assay [1] was 53%. In addition, the inhibition at 10 µM turned out to be 9.7% in the assay with IL-6 in THP-1 cells, 53.8% in assay [2], 10.1% in the assay on SW480 colon cancer cells and 9.3% in assay [3].

`Fc1ccc(-c2nccc3[nH]c(-c4n[nH]c5ncc(-c6cncc(CNCc7ccccc7)c6)cc45)cc23)cc1` [Compound 52, N-Benzyl-1-(5-(3-(4-(4-fluorophenyl)-1H-pyrrolo[3,2-c]pyridin-2-yl)-1H-pyrazolo[3,4-b]pyridin-5-yl)pyridin-3-yl)methanamine]: the EC50 in assay [1] was determined as 900 nM; with IL-6 in THP-1 cells it was 1.26 µM; in assay [2], 0.458 µM; with SW480 colon cancer cells, 0.346 µM; in assay [3] it was 0.854 µM. The Emax in assay [1] was 179%.

Consider `Fc1cccc(-c2nccc3[nH]c(-c4n[nH]c5ncc(-c6cccnc6)cc45)cc23)c1` [Compound 4, 3-(4-(3-Fluorophenyl)-1H-pyrrolo[3,2-c]pyridin-2-yl)-5-(pyridin-3-yl)-1H-pyrazolo[3,4-b]pyridine], for which the Emax in assay [1] is 50%. In addition, the EC50 worked out at 0.09 µM with IL-6 in THP-1 cells, 0.44 µM in assay [2], 3.21 µM in the assay with SW480 colon cancer cells and 0.464 µM in assay [3].

For the compound `Cn1cc(-c2cnc3[nH]nc(-c4cc5c(-c6cccnc6)nccc5[nH]4)c3c2)cn1` [Compound 556, 5-(1-Methyl-1H-pyrazol-4-yl)-3-(4-(pyridin-3-yl)-1H-pyrrolo[3,2-c]pyridin-2-yl)-1H-pyrazolo[3,4-b]pyridine], the Emax in assay [1] is 33%. Besides, the EC50 was determined as 0.355 µM in the assay on IL-6 in THP-1 cells, 0.098 µM in assay [2], 0.975 µM in the assay with SW480 colon cancer cells and 0.318 µM in assay [3].

`CN1CCN(c2nccc3[nH]c(-c4n[nH]c5ncc(-c6cncc(N)c6)cc45)cc23)CC1` [Compound 227, 5-(3-(4-(4-Methylpiperazin-1-yl)-1H-pyrrolo[3,2-c]pyridin-2-yl)-1H-pyrazolo[3,4-b]pyridin-5-yl)pyridin-3-amine]: in assay [1], the Emax is 18%. In addition, the EC50 with IL-6 in THP-1 cells is 0.707 µM; in assay [2], greater than 10 µM; in the assay on SW480 colon cancer cells, greater than 10 µM; in assay [3] it was greater than 10 µM. In addition, the inhibition at 10 µM in assay [2] was determined as 0%; in the assay on SW480 colon cancer cells it was 14.4%; in assay [3], 28.1%.

For the compound `O=C(Nc1cncc(-c2cnc3[nH]nc(-c4cc5c(-c6cccs6)nccc5[nH]4)c3c2)c1)C1CCC1` [Compound 357, N-(5-(3-(4-(Thiophen-2-yl)-1H-pyrrolo[3,2-c]pyridin-2-yl)-1H-pyrazolo[3,4-b]pyridin-5-yl)pyridin-3-yl)cyclobutanecarboxamide], the EC50 in assay [1] was 100 nM; in the assay with IL-6 in THP-1 cells, 0.179 µM; in assay [2], 0.609 µM; in the assay on SW480 colon cancer cells, 0.489 µM; in assay [3], 0.473 µM. In addition, the Emax in assay [1] was 82%.

Turning to `CC(C)Nc1cncc(-c2cnc3[nH]nc(-c4cc5c(-c6ccccc6F)nccc5[nH]4)c3c2)c1` [Compound 68, 5-(3-(4-(2-Fluorophenyl)-1H-pyrrolo[3,2-c]pyridin-2-yl)-1H-pyrazolo[3,4-b]pyridin-5-yl)-N-isopropylpyridin-3-amine], the EC50 was found to be 10 nM in assay [1]; 0.235 µM with IL-6 in THP-1 cells; 1.89 µM in assay [2]; 0.959 µM with SW480 colon cancer cells; 0.435 µM in assay [3]. Moreover, in assay [1], the Emax amounted to 76%.

Regarding `CN1CCN(c2nccc3[nH]c(-c4n[nH]c5ncc(-c6cncc(NC(=O)C7CCCC7)c6)cc45)cc23)CC1` [Compound 246, N-(5-(3-(4-(4-Methylpiperazin-1-yl)-1H-pyrrolo[3,2-c]pyridin-2-yl)-1H-pyrazolo[3,4-b]pyridin-5-yl)pyridin-3-yl)cyclopentane carboxamide], in assay [1], the Emax is 30%. For the same compound, the EC50 in the assay with IL-6 in THP-1 cells is 2.15 µM; in assay [2], 6.46 µM; in the assay with SW480 colon cancer cells, greater than 10 µM; in assay [3] it was greater than 10 µM. Besides, the inhibition at 10 µM in the assay on SW480 colon cancer cells amounted to 15.4%; in assay [3] it was 43%.

`Fc1ccc(-c2nccc3[nH]c(-c4n[nH]c5ncc(-c6cncc(CN7CCCC7)c6)cc45)cc23)cc1` [Compound 42, 3-(4-(4-Fluorophenyl)-1H-pyrrolo[3,2-c]pyridin-2-yl)-5-(5-(pyrrolidin-1-ylmethyl)pyridin-3-yl)-1H-pyrazolo[3,4-b]pyridine]: the EC50 came out at 10 nM in assay [1]; 3.99 µM in the assay on IL-6 in THP-1 cells; 0.72 µM in assay [2]; 0.535 µM in the assay on SW480 colon cancer cells; 1.57 µM in assay [3]. Also, in assay [1], the Emax is 105%.

With `c1cncc(-c2cnc3[nH]nc(-c4cc5c(N6CCCCC6)nccc5[nH]4)c3c2)c1` [Compound 172, 3-(4-(Piperidin-1-yl)-1H-pyrrolo[3,2-c]pyridin-2-yl)-5-(pyridin-3-yl)-1H-pyrazolo[3,4-b]pyridine], the EC50 in assay [1] turned out to be 900 nM; with IL-6 in THP-1 cells it was 0.484 µM; in assay [2], 1.33 µM; in the assay with SW480 colon cancer cells, 1.16 µM; in assay [3], 4.02 µM. Besides, the Emax in assay [1] was determined as 169%.

With `CS(=O)(=O)NCc1cc(F)cc(-c2nccc3[nH]c(-c4n[nH]c5ncc(-c6cncc(OCc7ccccc7)c6)cc45)cc23)c1` [Compound 774, N-(3-(2-(5-(5-(Benzyloxy)pyridin-3-yl)-1H-pyrazolo[3,4-b]pyridin-3-yl)-1H-pyrrolo[3,2-c]pyridin-4-yl)-5-fluorobenzyl)methanesulfonamide], the Emax in assay [1] stood at 21%. Besides, the EC50 in the assay with IL-6 in THP-1 cells is greater than 10 µM; in assay [2], 2.16 µM; in the assay with SW480 colon cancer cells it was greater than 10 µM; in assay [3], 6.86 µM. For the same compound, the inhibition at 10 µM in the assay on IL-6 in THP-1 cells was determined as 48.3%; with SW480 colon cancer cells, 30.2%.

As to `CC(C)(C)C(=O)Nc1cncc(-c2cnc3[nH]nc(-c4cc5c(-c6ccc(F)cc6)nccc5[nH]4)c3c2)c1` [Compound 36, N-(5-(3-(4-(4-Fluorophenyl)-1H-pyrrolo[3,2-c]pyridin-2-yl)-1H-pyrazolo[3,4-b]pyridin-5-yl)pyridin-3-yl)pivalamide], the Emax in assay [1] amounted to 44%. The EC50 in the assay on IL-6 in THP-1 cells stood at 3.23 µM; in assay [2], 0.579 µM; in the assay with SW480 colon cancer cells it was 0.553 µM; in assay [3], 0.98 µM.

As to `CC(C)C(=O)Nc1cncc(-c2cnc3[nH]nc(-c4cc5c(N6CCN(C)CC6)nccc5[nH]4)c3c2)c1` [Compound 233, N-(5-(3-(4-(4-Methylpiperazin-1-yl)-1H-pyrrolo[3,2-c]pyridin-2-yl)-1H-pyrazolo[3,4-b]pyridin-5-yl)pyridin-3-yl)isobutyramide], the EC50 is 30 nM in assay [1]; 0.611 µM with IL-6 in THP-1 cells; greater than 10 µM in assay [2]; greater than 10 µM with SW480 colon cancer cells; greater than 10 µM in assay [3]. Further, the Emax in assay [1] came to 62%. The inhibition at 10 µM is 34% in assay [2], 10.7% in the assay on SW480 colon cancer cells and 19.5% in assay [3].

In the case of `CC(C)CC(=O)Nc1cncc(-c2cnc3[nH]nc(-c4cc5c(-c6cc(F)cc(CNS(C)(=O)=O)c6)nccc5[nH]4)c3c2)c1` [Compound 478, N-(5-(3-(4-(3-Fluoro-5-(methylsulfonamidomethyl)phenyl)-1H-pyrrolo[3,2-c]pyridin-2-yl)-1H-pyrazolo[3,4-b]pyridin-5-yl)pyridin-3-yl)-3-methylbutanamide], the EC50 in assay [1] is 300 nM; with IL-6 in THP-1 cells it was 0.537 µM; in assay [2] it was greater than 10 µM; with SW480 colon cancer cells it was 4.09 µM; in assay [3] it was 1.96 µM. In addition, in assay [1], the Emax worked out at 52%. For the same compound, in assay [2], the inhibition at 10 µM amounted to 0%.

Turning to `c1cncc(-c2cnc3[nH]nc(-c4cc5cnccc5[nH]4)c3c2)c1` [Compound 256, 5-(Pyridin-3-yl)-3-(1H-pyrrolo[3,2-c]pyridin-2-yl)-1H-pyrazolo[3,4-b]pyridine], the Emax in assay [1] amounted to 54%. Besides, the EC50 was determined as 0.218 µM in the assay on IL-6 in THP-1 cells, 0.2 µM in assay [2], 0.356 µM in the assay with SW480 colon cancer cells and 0.251 µM in assay [3].
